We go through four compounds from paper PMC7470163, “Effects of ticagrelor on the pharmacokinetics of rivaroxaban in rats” (Pharmaceutical Biology, 2020).

Each structure is given as a SMILES string.

Series [1] concerns rivaroxaban metabolism in RLMs. In words: In vitro interaction study: inhibition of rivaroxaban metabolism by ticagrelor in RLMs. It counts as in vitro ADME, Sprague-Dawley rat. The note with it: read-out: IC50 (ticagrelor decreased rivaroxaban metabolic clearance). As to the method:
The pooled rat liver microsomes (RLMs) were obtained from 8 rats, which were weighed and homogenized with cold […] phosphate-buffered saline (PBS) containing 0.25 mM sucrose. After centrifuging at 11000 rpm for 15 min, the supernatants were separated and transferred into new tubes for another 15 min centrifugation at 11000 rpm. Then ultracentrifugation was performed at 10000 rpm at 4 °C for 1 h, and the microsomal pellets were resuspended with cold 0.01 mM PBS and stored at −80 °C. The protein concentration of RLMs was determined using the Bradford Protein Assay Kit (Thermo Scientific, Waltham, MA, USA).
Ticagrelor was applied as the inhibitor to determine the half-maximal inhibitory concentration (IC50). The incubation mixture in a total volume of 200 μL contained 0.5 mg/mL of RLMs, 100 mM potassium phosphate buffer (pH 7.4), rivaroxaban (20 μM), ticagrelor (1, 2.5, 5, 10, 25, 50 and 100 μM) and 1 mM NADPH. After preincubation in a shaking water bath at 37 °C for 5 min, NADPH was added to initiate the reaction in a final volume of 200 μL. […]
The GraphPad (version 8.0; GraphPad Software Inc., San Diego, CA, USA) was applied to calculate IC50 and plot plasma concentration-time curves. The pharmacokinetic parameters using non-compartmental analysis were calculated by DAS (version 3.2.8; Wenzhou Medical University, China). […]

For series [2], the system named is CYP3A4 (4-hydroxylation of midazolam). Also noted: method as in Zhou et al. [2011]. The note with it: read-out: IC50 (inhibition of 4-hydroxylation of midazolam); in vitro; ref Zhou et al. [2011]; cited from earlier work.
On the set-up of series [3]: method as in Becker et al. [2011]. The note with it: PLATO study; ref Becker et al. [2011]; cited from earlier work.
Details of series [4]: method as in Butler and Teng [2011]. To be noted: oral administration of ticagrelor, healthy volunteers; ref Butler and Teng [2011]; cited from earlier work.
On the set-up of series [5]: method as in Teng and Butler [2013]. The note with it: concomitant use of ticagrelor; ref Teng and Butler [2013]; cited from earlier work.

The term IC50 denotes the concentration needed to halve the response being measured. Consider `CCCSc1nc(N[C@@H]2C[C@H]2c2ccc(F)c(F)c2)c2nnn([C@@H]3C[C@H](OCCO)[C@@H](O)[C@H]3O)c2n1` [ticagrelor, Ticagrelor], for which, in series [1], the IC50 stood at 14 µM. In series [2], the IC50 was […]. In series [3], the non-CABG major bleeding is on record as 4.5% and the non-procedure-related major bleeding is 3.1%.
Consider `C#C[C@]1(O)CC[C@H]2[C@@H]3CCc4cc(O)ccc4[C@H]3CC[C@@]21C` [ethinyloestradiol], for which, in series [4], the “increase of AUC0–t of ethinyloestradiol” value is given as 20%, the “increase of Cmax of ethinyloestradiol” value was 31% and the “increase of Cmin of ethinyloestradiol” value is listed as 20%.
For `COC(=O)[C@H](c1ccccc1Cl)N1CCc2sccc2C1` [clopidogrel], in series [3], the non-CABG major bleeding is 3.8% and the non-procedure-related major bleeding is recorded as 2.3%.
In the case of `C[C@H]1O[C@@H](O[C@H]2[C@@H](O)C[C@H](O[C@H]3[C@@H](O)C[C@H](O[C@H]4CC[C@@]5(C)[C@H](CC[C@@H]6[C@@H]5C[C@@H](O)[C@]5(C)[C@@H](C7=CC(=O)OC7)CC[C@]65O)C4)O[C@@H]3C)O[C@@H]2C)C[C@H](O)[C@@H]1O` [digoxin], in series [5], the “increase of digoxin AUC” value is 28% and the “increase of digoxin Cmax” value is given as 75%.
